Test results published in patent publication US20160193179A1, “Treatment of Cardiovascular Risk in Diabetic Patients” (EVOLVA SA, priority 2012, published 2016).

Experiments:
[1] = system: 6-keto PGF1α secretion by HUVEC; assay: 6-keto PGF1α EIA, secretion by HUVEC; type: cell-based, human; details: HUVEC 6 h
Description: 6-ketoPGF1α secretion is evaluated using a specific EIA assay. Results are expressed in picograms of 6-ketoPGF1α reported to micrograms of proteins measured by the Folin method on cell lysates. Data are means±S.D. (n=3). Statistical analysis: one way ANOVA followed by Bonferroni, Versus CTL, * p<0.05.
HUVEC are seeded at 25,000 cells/well on gelatin-coated 24-well plate (Corning) in EGM. After 48 h, cell medium is replaced by EBM containing or not containing Compound 3 at different concentrations. After 1 h of preincubation, 1 ng/ml TNFα is added or is not added to the wells. 6 h after adding TNFα, medium of each well is collected and cell lysis is performed in NaOH 0.5 N for 30 min. PTX3 secretion in the incubation medium is assayed using specific ELISAs (#DPTX30, Quantikine, R&D Systems, USA) according to the procedure provided by the supplier. 6-ketoPGF1α levels in cell culture media are determined using a competitive assay (#515211, Cayman, USA). Results are expressed in picograms of PTX3 or 6-ketoPGF1α reported to micrograms of proteins measured by the Folin method (Folin-Ciocalteu's phenol reagent, Merck, Germany) in cell lysates.

PARP cleavage in HUVEC = assay: PARP-1 cleavage (apoptosis) by western blot in HUVEC; type: cell-based, human
Description: FIGS. 3C and 3D show the effect of Compound 3 on PARP cleavage induced by TNFα in HUVEC after 6 h of incubation. C) Total protein extracts are recovered and analysed by western blot. β-actin serves as the loading control. D) Quantification of optical density of each band and expression of the ratio between the optical density of PARP cleavage and the total of PARP.
HUVEC are seeded at 187,500 cells/flask in gelatin-coated T75 in EGM. After 4 days, cell medium is replaced by EBM containing or not containing Compound 3 at different concentrations. After 1 h of preincubation, 1 ng/ml TNFα is added or is not added into the T75 flasks. 6 h after, cell media are collected and centrifuged at 500 g for 5 min to pellet and pool floating cells with adherent cells. Adherent cells are washed twice with cold PBS and are collected in 1.5 ml of PBS. Harvested cells are then centrifuged at 500 g for 5 min at 4° C. […] Protein concentration is measured using Pierce method (Pierce 660 nm protein assay, Thermoscientific, USA) with the Ionic Detergent Compatibility Reagent (Thermoscientific, USA). […] Antibody binding was analysed with the scanner Odyssey Image System (Li-COR, Biosciences, USA) and Odyssey V3.0 software. Optical density of each band is also determined by using the software.

TP receptor = biological target: T1, TP receptor (Homo sapiens, UniProt P21731); details: 0.125 to 2.5 mg/kg; cited from earlier work
T1 sequence (P21731 1-343): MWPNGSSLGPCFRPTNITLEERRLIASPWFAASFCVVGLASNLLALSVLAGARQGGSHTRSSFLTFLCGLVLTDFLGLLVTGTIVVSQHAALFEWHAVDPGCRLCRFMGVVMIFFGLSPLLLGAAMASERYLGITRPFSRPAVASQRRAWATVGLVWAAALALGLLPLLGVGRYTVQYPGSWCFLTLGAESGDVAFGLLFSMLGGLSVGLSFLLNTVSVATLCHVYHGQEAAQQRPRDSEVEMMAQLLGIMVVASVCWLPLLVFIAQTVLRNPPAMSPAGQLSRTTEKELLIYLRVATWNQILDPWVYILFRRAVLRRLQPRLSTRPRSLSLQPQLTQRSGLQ

## CC(C)(C)N.O=C(O)CC/C=C\C[C@@H]1CO[C@H](c2ccccc2Cl)O[C@@H]1c1ccccc1O [Compound 3, tert-butylammonium (Z)-6-((2S,4S,5R)-2-(2-chlorophenyl)-4-(2-hydroxyphenyl)-1,3-dioxan-5-yl)hex-4-enoate]
[1]; 600 nM Compound 3 together with 1 ng/ml TNFα
  6-keto PGF1α secretion: significant increase
[1]; Compound 3 alone, without TNFα
  6-keto PGF1α secretion: do not increase
PARP cleavage in HUVEC; HUVEC 6 h, without TNFα
  induction of apoptosis (PARP cleavage) by the compound itself: does not induce apoptosis
PARP cleavage in HUVEC; HUVEC, TNFα 6 h, western blot
  PARP cleavage induced by TNFα: does not decrease
TP receptor
  TP receptor activation in vivo: antagonize TP receptor activation in vivo
